Assay results from patent US10906904B2, “ADO-resistant cysteamine analogs and uses thereof” (HORIZON ORPHAN LLC, priority 2015, dated 2021).
Read-outs that look alike come from different tables or passages of the source. Each block holds one molecule with its values, some of them ahead of it.

Legend:
Cystine reactivity assay [1] = test: Cystine reactivity assay; parameters: Cystine Reactivity: unit not given here; conditions: for Cystine Reactivity Assay (30° C.) (%) Mean Value: percentage of 3 mM cysteamine
Experimental: Cystine reactivity was assessed by incubating 3 mM test compound with 100 nM BODIPY® FL L-Cystine (Life Tech.) at 30° C., pH 7.4 in phosphate buffer. […] Compound cystine reactivity was expressed as a percentage of that of 3 mM cysteamine.
Under resting conditions, the inherent fluorescence of BODIPY® FL L-cystine was very low due to the spatial proximity of the two BODIPY molecules causing quenching. Under chemical reaction (disruption of the S—S bond), the spatial distance was increased, the quenching lost, and measured fluorescence increased. Time (minutes) vs. fluorescence (relative fluorescence units—RFU) was plotted and linear regression analysis was performed to generate a slope value corresponding to the reaction rate in RFU/min and an R2 value.

human recombinant ADO = biological target: T1, human recombinant ADO (Homo sapiens, UniProt Q96SZ5); format: in vitro ADME
T1 sequence (Q96SZ5 1-270): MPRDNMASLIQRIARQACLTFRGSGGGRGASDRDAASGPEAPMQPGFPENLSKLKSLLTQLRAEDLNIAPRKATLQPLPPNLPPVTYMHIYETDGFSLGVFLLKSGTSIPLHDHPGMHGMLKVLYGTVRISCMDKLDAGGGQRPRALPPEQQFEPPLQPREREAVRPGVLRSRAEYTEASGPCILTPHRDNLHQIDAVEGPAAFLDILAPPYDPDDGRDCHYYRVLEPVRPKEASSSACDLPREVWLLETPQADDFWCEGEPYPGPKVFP
Experimental: The rate of ADO metabolism was determined by incubating 15 mM test compound with 60 μg/ml human recombinant ADO and 20 nM MitoXpress® O2-sensitive fluorescent probe (Luxcel) at 37° C. in assay buffer/salt in a sealed assay chamber. The initial rate of fluorescence (excitation λ380 nm and emission λ650 nm) increase was used to measure ADO-dependent oxygen depletion activity. The ability of ADO to metabolize compounds and concomitantly consume oxygen was expressed relative to that of 15 mM cysteamine.

[2] = test system: cystinotic human fibroblasts; test: Cystine depletion assay; format: cell-based; conditions: for Emax: Homo sapiens, Fibroblast, 1 h; for cystine depletion levels (in words): compared to cysteamine; for Cystine depletion: compound at 50 μM or 100 μM, Tables 1-3
Experimental: The ability of test compounds to deplete cystine from cystinotic human fibroblasts (Coriell) was determined by incubating compounds with cells for 60 min at 37° C., 95% (v/v) air/5% (v/v) CO2 in Minimal Essential Media Eagle. Treated cell samples were subsequently harvested, then homogenized to ensure plasma and lysosomal membrane disruption. Protein was removed by acid precipitation and cystine in the supernatant measured using LC-MS/MS and HILIC chromatography. Protein levels were determined and cystine levels reported as nM per mg/ml protein. Cystine levels after test compound treatment were expressed as a percentage of that of untreated control cells.
Compounds were assayed at a concentration of 50 μM or 100 μM according to the general methods described above.
Cystine depletion levels for the compounds are expressed in Table 4 as a percent relative to the cystine depletion achieved by cysteamine (c.f. cysteamine 100%) at a similar concentration.
Cystine depletion levels for each of the compounds in Table 5 are expressed as a percent relative to the cystine depletion achieved by cysteamine (c.f. cysteamine 100%) at a similar concentration.

[3] = Dimethyl sulfide (DMS) detection in rat whole blood following oral compound administration; format: in vivo; conditions: rat, in vivo, po, 150 mg/kg
Experimental: Male Sprague Dawley (SD) rats (200-250 g) were housed in cages under a 12 hour light/dark cycle with free access to food and water. Temperature and humidity were controlled according to UK Home Office regulations. For oral (po) administration, test compounds were formulated in water at a concentration of 30 mg/mL, to provide a dose of 150 mg/kg when administered orally in a 5 mL/kg dosing volume. Following compound or water (vehicle) administration to rats (n=15 per compound), terminal blood samples (>5 mL) were taken by cardiac puncture under CO2 at defined time-points post oral dosing (pre-dose, 0.25 hour, 0.5 hour, 1 hour and 2 hour). Blood was placed in sealed heparinized Eppendorf tubes on wet ice and stored at 4° C. prior to analyzing DMS levels by gas chromatography (GC).
For each sample of rat blood, 1 mL was added to an evacuated 20 mL GC-Headspace vial containing tetrahydrofuran (THF) internal standard. Headspace vials were sealed with a crimp cap and septum (to prevent the vaporization of volatile sulfur compounds into the open air) and thoroughly vortex mixed. All samples were processed using gas chromatography to measure DMS levels. In short, sulfur containing compounds were thermally liberated into the gas carrier stream and injected (1 μL) into the gas chromatography column (30 m×0.32 mm DB-624 1.8 μm). Under these conditions, the retention time for dimethyl sulfide (DMS) and THF internal standard were approximately 1.83 minutes and 3.82 minutes respectively.
For each analyzed blood sample, the ratio of DMS peak area to THF peak area was calculated. For the DMS calibration curve and assay linearity checks, this ratio was graphically plotted against the concentration of reference DMS standards (blank, 60 nM, 180 nM, 360 nM, 600 nM, 1200 nM, 1800 nM and 3000 nM). The concentration of DMS in each blood sample was calculated from the equation produced by this plot by linear regression analysis. […].

St-HdhQ^111/111 cells = test: Glutamate-induced neuronal excitotoxicity assay; format: cell-based; conditions: 6 mM L-glutamate 24 hours, % of effect of 100 μM cysteamine; for viability at 10 µM / viability at 100 µM: STHdhQ111; for viability at 10 µM: read-out: HdhQ^111/111 cell % survival (mean ± STD) Test Conc. 10 μM; for viability at 100 µM: read-out: HdhQ^111/111 cell % survival (mean ± STD) Test Conc. 100 μM
Experimental: The ability of test compounds to inhibit glutamate-induced excitotoxicity (neuroprotection) in St-HdhQ^111/111 cells was determined by incubating compounds with cells for 60 min at 33° C., 95% (v:v) air/5% (v:v) CO2 in Dulbecco's Modified Eagle Media. Following this, excitotoxicity was induced by the addition of 6 mM L-glutamate for 24 hours. Cell viability was assessed by measuring ATP levels using a luminescent-based CellTitre Glo assay (Promega). Compound neuroprotection (% cell survival) was expressed as a % of the effect recorded with 100 μM cysteamine (denoted as 100% cell survival).

Cystine reactivity assay [4] = conditions: Table 4
[5] = Rodent pharmacokinetic assay (rat); format: in vivo; conditions: 2 and 10 mg free base equivalents per kg, intravenous and oral gavage
Experimental: (§1) Pharmacokinetic parameters of a test compound in a rodent species (mouse and/or rat) were determined by administering a test compound at 2 and 10 mg free base equivalents per kg via the intravenous and oral gavage route to groups of three animals per route.
(§2) Blood samples were taken at various times after administration, plasma prepared, and submitted to analysis for parent drug using a qualified LC-MS-MS assay. Pharmacokinetics parameters derived from the plasma analytical data were determined using non-compartmental analysis.

[6] = test system: cryopreserved rat hepatocytes; test: Rat hepatocyte stability assay
Experimental: Rat hepatocytes were used to model in vivo hepatic clearance of the compounds by the ADO enzyme. Briefly, a Hepatocyte Stability Assay was carried out using cryopreserved rat hepatocytes.

[7] = Rodent pharmacokinetic assay (mouse); conditions: plasma, 10 mg
Experimental: as §1, §2

[8] = Table 4, relative to cystine depletion by cysteamine (100%) at a similar concentration, read-out: Cystine Depletion (%)
[9] = Table 5, relative to cystine depletion by cysteamine (100%) at a similar concentration, read-out: Cystine Depletion (%) Mean Value
[10] = Table 4, relative to cystine depletion by cysteamine (100%) at a similar concentration

SMILES: SC1CCNCC1 [Compound 41188]
Cystine Reactivity Assay (30° C.) (%) Mean Value (Cystine reactivity assay [1]; Table 4): 59-90%
ADO Metabolism Assay (%) Mean Value (human recombinant ADO; human, 15 mM): <25%
Emax [2, 8]: 87%
Mean DMS levels (nM) ± STD, Time 1 hr ([3]; male, Sprague Dawley, 1 h): <60 nM
Mean DMS levels (nM) ± STD, Time 2 hr ([3]; male, Sprague Dawley, 2 h): <60 nM
viability at 10 µM (St-HdhQ^111/111 cells; 10 μM): 20 ± 6%
viability at 100 µM (St-HdhQ^111/111 cells; 100 μM): 105 ± 11%

SMILES: SCCN1CCCC1 [Compound 17518]
ADO Metabolism Assay (%) Mean Value (human recombinant ADO; Table 4, relative to 15 mM cysteamine): <25%
Emax [2, 8]: 99%
Cystine Reactivity Assay (RT) (RFU) Mean Value (Cystine reactivity assay [4]): >9000 RFU

SMILES: CC(N)CS (stereo not drawn) [Compound 3c]
Cystine Reactivity (Cystine reactivity assay [1]; Tables 1-3): 7733
reactivity with cystine compared to cysteamine (in words) (Cystine reactivity assay [1]; text summary of Tables 1-3): increased reactivity with cystine compared to cysteamine
metabolism by ADO compared to cysteamine (in words) (human recombinant ADO): significantly reduced metabolism by ADO compared to cysteamine
cystine depletion levels (in words) [2]: similar
Cystine depletion [2]: 97%
Rat PK Bioavailability [5]: 23%
Rat PK-Half life [5]: 0.8 h
Rat Hepatocytes CLint [6]: 29500 µL/min/mg

SMILES: CC(S)CN (stereo not drawn) [Compound 17330]
Cystine Reactivity Assay (RT) (RFU) Mean Value (Cystine reactivity assay [4]): 4000-9000 RFU

SMILES: CC(N)CS (stereo not drawn) [Compound 17515]
Cystine Depletion (%) [2, 10]: 97%
Cystine Reactivity Assay (RT) (RFU) Mean Value (Cystine reactivity assay [4]): 4000-9000 RFU

SMILES: SC1CNC1 [Compound 41446]
Cystine Reactivity Assay (30° C.) (%) Mean Value (Cystine reactivity assay [1]; Table 5): >90%
Cystine Depletion (%) [2, 10]: 82%
Cystine Depletion (%) Mean Value ([2]; Table 5, relative to cystine depletion by cysteamine (100%) at a similar concentration): 82%
Mean DMS levels (nM) ± STD, Time 1 hr [3]: <60 nM
Mean DMS levels (nM) ± STD, Time 2 hr [3]: <60 nM
HdhQ^111/111 cell % survival (mean ± STD) Test Conc. 10 μM (St-HdhQ^111/111 cells; 10 μM): 6 ± 9%
HdhQ^111/111 cell % survival (mean ± STD) Test Conc. 100 μM (St-HdhQ^111/111 cells; 100 μM): 101 ± 11%

SMILES: NCCCS [Compound 17329]
Cystine Depletion (%) [2, 10]: 36%
Cystine Reactivity Assay (RT) (RFU) Mean Value (Cystine reactivity assay [4]): <4000 RFU

The next lines start with results.

ADO Metabolism Assay (%) Mean Value (human recombinant ADO; human, 15 mM): <25%
SMILES: SCCc1ccncc1 [Compound 17522]
Emax [2, 8]: 6%
Cystine Reactivity Assay (RT) (RFU) Mean Value (Cystine reactivity assay [4]): <4000 RFU

ADO Metabolism Assay (%) Mean Value (human recombinant ADO; human, 15 mM): <25%
SMILES: SCCN1CCOCC1 [Compound 17328]
Emax [2, 8]: 13%
Cystine Reactivity Assay (RT) (RFU) Mean Value (Cystine reactivity assay [4]): <4000 RFU

ADO Metabolism Assay (%) Mean Value (human recombinant ADO; human, 15 mM): <25%
SMILES: CC(=O)NCCS [Compound 17287]
Cystine Reactivity Assay (RT) (RFU) Mean Value (Cystine reactivity assay [4]): <4000 RFU

ADO Metabolism Assay (%) Mean Value (human recombinant ADO; human, 15 mM): <25%
Mean DMS levels (nM) ± STD, Time 1 hr ([3]; male, Sprague Dawley, 1 h): <60 nM
Mean DMS levels (nM) ± STD, Time 2 hr ([3]; male, Sprague Dawley, 2 h): <60 nM
SMILES: SC[C@@H]1CCCN1 (stereo in doubt) [Compound 42210]
Cystine Reactivity Assay (30° C.) (%) Mean Value (Cystine reactivity assay [1]; Table 4): >90%
Cystine Reactivity Assay (30° C.) (%) Mean Value (Cystine reactivity assay [1]; Table 5): >90%
Emax [2, 8]: 87%
Emax [2, 9]: 89%
viability at 10 µM (St-HdhQ^111/111 cells; 10 μM): 7 ± 6%
viability at 100 µM (St-HdhQ^111/111 cells; 100 μM): 105 ± 8%

ADO Metabolism Assay (%) Mean Value (human recombinant ADO; human, 15 mM): <25%
Mean DMS levels (nM) ± STD, Time 0.5 hr ([3]; male, Sprague Dawley, 0.5 h): <60 nM
Mean DMS levels (nM) ± STD, Time 1 hr ([3]; male, Sprague Dawley, 1 h): <60 nM
Mean DMS levels (nM) ± STD, Time 2 hr ([3]; male, Sprague Dawley, 2 h): <60 nM
SMILES: CC1(S)CCNCC1 [Compound 42341]
Cystine Reactivity Assay (30° C.) (%) Mean Value (Cystine reactivity assay [1]; Table 4): <50%
Cystine Reactivity Assay (30° C.) (%) Mean Value (Cystine reactivity assay [1]; Table 5): <50%
Emax [2, 8]: 81%
Emax [2, 9]: 83%
viability at 10 µM (St-HdhQ^111/111 cells; 10 μM): 1 ± 10%
viability at 100 µM (St-HdhQ^111/111 cells; 100 μM): 55 ± 21%

ADO Metabolism Assay (%) Mean Value (human recombinant ADO; human, 15 mM): <25%
Mean DMS levels (nM) ± STD, Time 1 hr ([3]; male, Sprague Dawley, 1 h): <60 nM
Mean DMS levels (nM) ± STD, Time 2 hr ([3]; male, Sprague Dawley, 2 h): <60 nM
SMILES: CC(C)(S)CN [Compound 18782]
Emax [2, 8]: 32%
Cystine Reactivity Assay (RT) (RFU) Mean Value (Cystine reactivity assay [4]): <4000 RFU

ADO metabolism (human recombinant ADO; human, 15 mM): 2%
half-life [7]: 7.1 h
bioavailability ([7]; oral): 74%
SMILES: SC1CCNCC1 [Compound 2c]
metabolism by ADO compared to cysteamine (in words) (human recombinant ADO): significantly reduced metabolism by ADO compared to cysteamine
cystine depletion levels (in words) [2]: slightly decreased
Cystine depletion [2]: 73%

ADO Metabolism Assay (%) Mean Value (human recombinant ADO; human, 15 mM): <25%
SMILES: CN1CCC(S)CC1 [Compound 17521]
Cystine Reactivity Assay (30° C.) (%) Mean Value (Cystine reactivity assay [1]; Table 4): 50-90%
Emax [2, 8]: 79%
Cystine Reactivity Assay (RT) (RFU) Mean Value (Cystine reactivity assay [4]): 4000-9000 RFU
